This note sets out measurements from ChEMBL document CHEMBL4219044, “Challenges in the design of insulin and relaxin/insulin-like peptide mimetics” (Bioorg Med Chem, 2018).

In experiment [1] the target is T1, Insulin receptor (Homo sapiens, UniProt P06213). The experiment in a line: Displacement of [TyrA14-125I]-human insulin from human insulin receptor isoform A expressed in baby hamster kidney cells after 2 days by gamma counting method. The format is cell-based.
In experiment [2] the target is Insulin receptor (Mus musculus, UniProt P15208). Description: Agonist activity at B6D2F1 mouse insulin receptor assessed as increase in glucose incorporation into lipid phase after 2 hrs in presence of D-[3-3H]glucose by TopCount microplate scintillation counting method.
Sequence of Insulin receptor (Mus musculus, UniProt P15208) (P15208 28-748 limits assumed): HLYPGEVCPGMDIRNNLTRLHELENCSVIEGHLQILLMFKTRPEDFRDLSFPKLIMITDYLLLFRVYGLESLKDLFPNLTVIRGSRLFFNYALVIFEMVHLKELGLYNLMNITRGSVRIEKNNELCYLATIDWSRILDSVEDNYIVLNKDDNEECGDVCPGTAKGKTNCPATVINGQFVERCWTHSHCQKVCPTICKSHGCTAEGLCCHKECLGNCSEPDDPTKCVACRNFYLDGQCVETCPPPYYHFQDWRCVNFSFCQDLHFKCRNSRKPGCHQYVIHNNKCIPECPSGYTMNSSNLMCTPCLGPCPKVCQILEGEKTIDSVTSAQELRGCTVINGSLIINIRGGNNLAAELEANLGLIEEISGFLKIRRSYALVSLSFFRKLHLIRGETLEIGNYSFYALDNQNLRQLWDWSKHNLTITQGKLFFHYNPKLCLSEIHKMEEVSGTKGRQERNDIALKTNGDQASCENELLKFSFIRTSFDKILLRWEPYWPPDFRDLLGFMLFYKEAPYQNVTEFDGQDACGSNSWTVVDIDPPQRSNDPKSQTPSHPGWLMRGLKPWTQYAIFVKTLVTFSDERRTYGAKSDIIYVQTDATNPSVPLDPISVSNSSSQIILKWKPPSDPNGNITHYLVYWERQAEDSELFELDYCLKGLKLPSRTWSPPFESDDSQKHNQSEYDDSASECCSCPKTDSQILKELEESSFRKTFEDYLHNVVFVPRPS
Sequence of Insulin receptor (Mus musculus, UniProt P15208) (P15208 753-1372 limits assumed): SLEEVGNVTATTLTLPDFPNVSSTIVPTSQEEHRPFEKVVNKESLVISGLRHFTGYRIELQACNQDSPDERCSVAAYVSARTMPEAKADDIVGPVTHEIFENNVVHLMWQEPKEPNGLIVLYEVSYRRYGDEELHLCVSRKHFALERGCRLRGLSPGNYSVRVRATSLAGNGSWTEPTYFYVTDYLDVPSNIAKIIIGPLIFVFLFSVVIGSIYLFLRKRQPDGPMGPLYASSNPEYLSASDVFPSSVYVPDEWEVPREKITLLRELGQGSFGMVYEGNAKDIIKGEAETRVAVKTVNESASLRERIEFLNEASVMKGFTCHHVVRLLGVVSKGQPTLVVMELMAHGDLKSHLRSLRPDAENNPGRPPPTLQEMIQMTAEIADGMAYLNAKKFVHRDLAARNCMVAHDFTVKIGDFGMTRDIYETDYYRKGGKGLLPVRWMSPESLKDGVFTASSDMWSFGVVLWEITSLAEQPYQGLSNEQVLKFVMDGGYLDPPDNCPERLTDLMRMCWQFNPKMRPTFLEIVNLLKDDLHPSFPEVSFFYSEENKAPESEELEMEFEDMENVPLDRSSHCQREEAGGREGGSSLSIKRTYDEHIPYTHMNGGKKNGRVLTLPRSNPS
For experiment [3], the target named is T1, Insulin receptor. The experiment in a line: Activation of recombinant human insulin receptor using biotin-KSRGDYMTMQIG as substrate after 1 hr by spectrophotometry relative to insulin.

Residues, ends and D or L forms follow the SMILES beside them.

T1 sequence (P06213 28-758 limits assumed): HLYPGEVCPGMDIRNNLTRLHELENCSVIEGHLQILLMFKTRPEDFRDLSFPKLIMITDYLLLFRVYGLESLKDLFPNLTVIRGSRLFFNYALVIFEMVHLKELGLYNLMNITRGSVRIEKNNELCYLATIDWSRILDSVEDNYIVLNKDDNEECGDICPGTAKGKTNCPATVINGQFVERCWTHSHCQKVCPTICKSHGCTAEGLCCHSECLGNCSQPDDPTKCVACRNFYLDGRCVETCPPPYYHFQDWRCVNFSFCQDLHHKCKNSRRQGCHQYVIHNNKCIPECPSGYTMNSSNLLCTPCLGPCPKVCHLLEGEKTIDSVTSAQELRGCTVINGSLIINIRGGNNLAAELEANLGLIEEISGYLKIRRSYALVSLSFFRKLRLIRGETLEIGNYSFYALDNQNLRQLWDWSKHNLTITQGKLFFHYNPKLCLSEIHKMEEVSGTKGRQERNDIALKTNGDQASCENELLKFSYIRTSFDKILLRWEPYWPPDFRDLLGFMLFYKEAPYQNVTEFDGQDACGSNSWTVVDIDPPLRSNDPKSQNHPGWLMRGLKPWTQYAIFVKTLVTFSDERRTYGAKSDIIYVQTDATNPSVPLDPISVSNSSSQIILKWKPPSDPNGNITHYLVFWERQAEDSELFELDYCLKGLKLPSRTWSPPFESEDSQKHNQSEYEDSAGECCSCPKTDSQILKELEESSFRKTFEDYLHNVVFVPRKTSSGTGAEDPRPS
T1 sequence (P06213 763-1382 limits assumed): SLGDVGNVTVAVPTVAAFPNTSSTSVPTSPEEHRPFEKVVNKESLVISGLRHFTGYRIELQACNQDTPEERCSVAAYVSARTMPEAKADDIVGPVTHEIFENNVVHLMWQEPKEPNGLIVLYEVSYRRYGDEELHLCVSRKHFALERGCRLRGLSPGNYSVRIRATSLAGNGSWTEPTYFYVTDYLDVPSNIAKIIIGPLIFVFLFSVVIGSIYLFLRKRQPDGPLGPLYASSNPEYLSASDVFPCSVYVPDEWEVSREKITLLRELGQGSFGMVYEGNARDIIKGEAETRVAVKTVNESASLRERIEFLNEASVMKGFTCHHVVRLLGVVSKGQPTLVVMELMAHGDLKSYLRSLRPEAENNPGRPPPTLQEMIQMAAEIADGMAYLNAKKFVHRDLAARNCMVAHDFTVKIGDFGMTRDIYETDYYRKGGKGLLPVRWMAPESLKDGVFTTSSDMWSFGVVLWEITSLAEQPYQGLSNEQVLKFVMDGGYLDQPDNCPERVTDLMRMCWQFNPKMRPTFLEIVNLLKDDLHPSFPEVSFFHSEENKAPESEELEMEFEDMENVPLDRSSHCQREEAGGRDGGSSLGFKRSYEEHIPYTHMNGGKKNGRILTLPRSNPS

Broadly, the Kd is the free concentration of one partner at which half of the binding sites on the other are occupied at equilibrium, for simple one-to-one binding. A high value points to weaker binding. By EC50 is commonly meant the midpoint of the concentration-response curve. In the case of `CC(C)C[C@H](NC(=O)[C@H](CCC(N)=O)NC(=O)[C@H](CCCNC(=N)N)NC(=O)[C@H](CCC(=O)O)NC(=O)[C@H](Cc1ccccc1)NC(=O)[C@H](Cc1c[nH]c2ccccc12)NC(=O)[C@H](CC(=O)O)NC(=O)[C@H](Cc1ccc(O)cc1)NC(=O)[C@H](Cc1ccccc1)NC(=O)[C@H](CO)NC(=O)[C@H](CCC(=O)O)NC(=O)[C@H](CC(=O)O)NC(=O)[C@H](CC(C)C)NC(=O)[C@H](CO)NC(=O)CNC(=O)[C@H](CO)NC(=O)[C@@H]1CCCN1C(=O)[C@H](CS)NC(=O)CNC(=O)[C@H](CCCNC(=N)N)NC(=O)CNC(=O)[C@H](Cc1ccc(O)cc1)NC(=O)[C@@H](NC(=O)[C@H](CCC(=O)O)NC(=O)[C@H](CS)NC(=O)[C@H](CCC(=O)O)NC(=O)[C@@H](NC(=O)[C@H](CCC(N)=O)NC(=O)[C@H](C)NC(=O)[C@H](Cc1c[nH]c2ccccc12)NC(=O)[C@H](CCC(=O)O)NC(=O)[C@H](CCC(=O)O)NC(=O)[C@H](CCC(=O)O)NC(=O)[C@H](CC(C)C)NC(=O)[C@@H](N)CO)C(C)C)C(C)C)C(=O)NCC(=O)O` (H-SLEEEWAQVECEVYGRGCPSGSLDESFYDWFERQLG-OH), the Kd at Insulin receptor [1] is 0.02 nM. In addition, the EC50 at Insulin receptor [2] worked out at 4 nM. The Activity on Insulin receptor [3] is 10%.
